# Source: patent US20210255193A1, “LYSINE REACTIVE PROBES AND USES THEREOF” (The Scripps Research Institute, priority 2017, published 2021)
# Assays:
# Assay in all cases: competitive isoTOP-ABPP
# Format in all cases: binding
# CUL2 Cullin-2 = target: T1, CUL2 Cullin-2 (Homo sapiens, UniProt Q13617); details: for isoTOP-ABPP ratio (R) at liganded lysine Q13617_K489: sol, 231; for isoTOP-ABPP ratio, lysine Q13617_K489: 50 uM_231_sol_in vitro
# T1 construct: isoTOP-ABPP experiments performed in cell lysates (in vitro); endogenous in cells; host or cells: soluble proteome of human cancer cell lines (MDA-MB-231, Ramos, Jurkat)
# T1 sequence (Q13617 whole entry): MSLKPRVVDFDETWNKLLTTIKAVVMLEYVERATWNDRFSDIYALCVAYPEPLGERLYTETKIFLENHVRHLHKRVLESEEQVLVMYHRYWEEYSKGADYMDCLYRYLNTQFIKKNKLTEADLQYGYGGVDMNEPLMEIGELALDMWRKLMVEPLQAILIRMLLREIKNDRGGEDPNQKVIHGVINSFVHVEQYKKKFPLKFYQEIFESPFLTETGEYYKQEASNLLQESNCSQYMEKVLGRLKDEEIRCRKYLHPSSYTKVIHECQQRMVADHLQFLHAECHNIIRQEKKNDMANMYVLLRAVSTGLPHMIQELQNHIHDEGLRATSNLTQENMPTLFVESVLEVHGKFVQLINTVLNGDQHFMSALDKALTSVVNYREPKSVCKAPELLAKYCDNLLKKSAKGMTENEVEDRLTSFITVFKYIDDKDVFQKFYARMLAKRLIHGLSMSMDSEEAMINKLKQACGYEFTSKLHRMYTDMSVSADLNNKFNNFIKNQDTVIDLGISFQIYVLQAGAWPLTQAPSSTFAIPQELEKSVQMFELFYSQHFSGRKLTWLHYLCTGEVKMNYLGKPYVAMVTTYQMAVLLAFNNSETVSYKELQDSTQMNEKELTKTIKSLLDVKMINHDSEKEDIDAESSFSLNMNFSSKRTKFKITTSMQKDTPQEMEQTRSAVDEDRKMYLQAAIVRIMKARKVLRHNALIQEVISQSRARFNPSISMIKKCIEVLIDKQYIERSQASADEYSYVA
# Summary of the method: (§1)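 Cell lysate treated in vitro with fragments (50 μM activated esters, 100 μM guanidinylating agents) or DMSO, labelled 1 h at ambient temperature with 0.1 mM STP-alkyne, CuAAC-tagged with light/heavy TEV tags, analysed by MS. R = DMSO/compound MS1 peak-area ratio; lysines with R≥4 called liganded.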
# [1] = target: T2, PFKL 6-phosphofructokinase, liver type (Homo sapiens, UniProt P17858); details: for isoTOP-ABPP ratio (R) at liganded lysine P17858_K677 / isoTOP-ABPP ratio (R) at liganded lysine P17858_K715 / isoTOP-ABPP ratio (R) at liganded lysine P17858_K315: sol, 231; for isoTOP-ABPP ratio, lysine P17858_K315 / isoTOP-ABPP ratio, lysine P17858_K677 / isoTOP-ABPP ratio, lysine P17858_K715: 50 uM_231_sol_in vitro; for isoTOP-ABPP ratio, lysine P17858_K677: possible other lysine P17858_K681; for isoTOP-ABPP ratio, lysine P17858_K715: possible other lysine P17858_K714
# T2 construct: isoTOP-ABPP experiments performed in cell lysates (in vitro); endogenous in cells; host or cells: soluble proteome of human cancer cell lines (MDA-MB-231; Ramos and Jurkat also prepared)
# T2 sequence (P17858 1-780): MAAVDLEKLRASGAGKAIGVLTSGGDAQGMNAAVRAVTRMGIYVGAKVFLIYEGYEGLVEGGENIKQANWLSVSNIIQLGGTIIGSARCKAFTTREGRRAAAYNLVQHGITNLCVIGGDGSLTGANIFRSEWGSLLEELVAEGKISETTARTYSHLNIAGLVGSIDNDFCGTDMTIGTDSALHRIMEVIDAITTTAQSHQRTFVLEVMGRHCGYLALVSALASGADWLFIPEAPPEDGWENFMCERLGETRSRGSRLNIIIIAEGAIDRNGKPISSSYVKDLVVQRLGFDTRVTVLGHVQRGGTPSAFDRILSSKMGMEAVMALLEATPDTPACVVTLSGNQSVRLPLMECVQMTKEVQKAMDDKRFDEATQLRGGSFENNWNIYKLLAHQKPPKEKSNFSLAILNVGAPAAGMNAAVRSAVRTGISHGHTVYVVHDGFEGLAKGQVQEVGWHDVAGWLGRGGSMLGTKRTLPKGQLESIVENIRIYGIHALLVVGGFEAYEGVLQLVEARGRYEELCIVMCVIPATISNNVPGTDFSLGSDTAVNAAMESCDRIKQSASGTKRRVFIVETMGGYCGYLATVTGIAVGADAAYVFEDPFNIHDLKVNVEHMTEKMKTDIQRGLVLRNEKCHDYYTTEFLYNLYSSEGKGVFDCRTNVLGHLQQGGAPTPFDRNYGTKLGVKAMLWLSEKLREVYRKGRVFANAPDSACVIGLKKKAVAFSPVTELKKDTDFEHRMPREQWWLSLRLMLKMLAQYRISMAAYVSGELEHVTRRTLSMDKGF
# Summary of the method: as §1
# [2] = target: T3, GLOD4 Glyoxalase domain-containing protein 4 (Homo sapiens, UniProt Q9HC38); details: for isoTOP-ABPP ratio (R) at liganded lysine Q9HC38_K305: sol, 231
# T3 construct: endogenous in cells; host or cells: MDA-MB-231 (soluble fraction of lysate)
# T3 sequence (Q9HC38 1-313): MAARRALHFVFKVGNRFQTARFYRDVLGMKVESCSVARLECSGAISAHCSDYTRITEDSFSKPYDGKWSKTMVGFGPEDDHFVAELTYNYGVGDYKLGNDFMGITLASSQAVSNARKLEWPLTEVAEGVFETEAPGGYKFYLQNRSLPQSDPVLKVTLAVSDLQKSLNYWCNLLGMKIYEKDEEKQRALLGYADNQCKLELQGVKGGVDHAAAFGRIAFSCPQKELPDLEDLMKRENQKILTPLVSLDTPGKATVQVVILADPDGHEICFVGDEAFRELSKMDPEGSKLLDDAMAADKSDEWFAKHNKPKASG
# Summary of the method: as §1
SMILES,"isoTOP-ABPP ratio (R) at liganded lysine Q13617_K489 (CUL2 Cullin-2; 50 uM, in vitro)","isoTOP-ABPP ratio (R) at liganded lysine P17858_K677 ([1]; 50 uM, in vitro)","isoTOP-ABPP ratio (R) at liganded lysine P17858_K715 ([1]; 50 uM, in vitro)","isoTOP-ABPP ratio (R) at liganded lysine Q9HC38_K305 ([2]; 50 uM, in vitro)","isoTOP-ABPP ratio, lysine Q13617_K489 (CUL2 Cullin-2)","isoTOP-ABPP ratio, lysine P17858_K677 [1]","isoTOP-ABPP ratio, lysine P17858_K715 [1]",further results
"O=C(CCc1coc2cc(F)ccc2c1=O)Oc1ccc([N+](=O)[O-])cc1[N+](=O)[O-] [fragment 36, 2,4-Dinitrophenyl 3-(7-fluoro-4-oxo-4H-chromen-3-yl)propanoate]",1.0,20.0,20.0,,,,,
"O=C(Oc1ccc([N+](=O)[O-])cc1[N+](=O)[O-])C(c1ccccc1)(c1ccccc1)c1ccccc1 [fragment 42, 2,4-Dinitrophenyl 2,2,2-triphenylacetate]",,0.8,0.9,0.9,,,,"isoTOP-ABPP ratio (R) at liganded lysine P17858_K315 ([1]; 50 uM, in vitro): 0.7"
"O=C(CCc1coc2cc(F)ccc2c1=O)Oc1c(F)c(F)c(F)c(F)c1F [fragment 26, Pentafluorophenyl 3-(7-fluoro-4-oxo-4H-chromen-3-yl)propanoate]",,,,,,,,"isoTOP-ABPP reactivity ratio at lysine Q13617_K489 (CUL2 Cullin-2; 50 uM, 231 sol, in vitro): 0.9; isoTOP-ABPP reactivity ratio at lysine Q9HC38_K305 ([2]; 50 uM, 231 sol, in vitro): 0.8; isoTOP-ABPP reactivity ratio at lysine P17858_K677 ([1]; 50 uM, 231 sol, in vitro): 20.0; isoTOP-ABPP reactivity ratio at lysine P17858_K715 ([1]; 50 uM, 231 sol, in vitro): 1.5"
"O=C(Oc1ccc([N+](=O)[O-])cc1[N+](=O)[O-])c1ccccc1Nc1cccc(C(F)(F)F)c1 [fragment 40, 2,4-Dinitrophenyl 2-((3-(trifluoromethyl)phenyl)amino)benzoate]",20.0,0.9,1.1,0.8,,,,
"O=C(Oc1ccc([N+](=O)[O-])cc1[N+](=O)[O-])C1CCN(C(=O)OCc2ccccc2)CC1 [fragment 34, 1-Benzyl 4-(2,4-dinitrophenyl) piperidine-1,4-dicarboxylate]",1.1,2.8,1.3,20.0,,,,
"Cn1cc(CC(=O)Oc2c(F)c(F)c(F)c(F)c2F)c2ccccc21 [fragment 22, Pentafluorophenyl 2-(1-methyl-1H-indol-3-yl)acetate]",,,,,,,,"R value (DMSO/fragment) for probe 1 labeling (CUL2 Cullin-2; Q13617_K489, 50 uM, 231 sol, in vitro): 1.0; R value (DMSO/fragment) for probe 1 labeling ([2]; Q9HC38_K305, 50 uM, 231 sol, in vitro): 0.7; R value (DMSO/fragment) for probe 1 labeling ([1]; P17858_K677, 50 uM, 231 sol, in vitro): 2.7; R value (DMSO/fragment) for probe 1 labeling ([1]; P17858_K715, 50 uM, 231 sol, in vitro): 2.9"
"O=C(Oc1c(F)c(F)c(C(F)(F)F)c(F)c1F)c1cc(C(F)(F)F)cc(C(F)(F)F)c1 [fragment 47, 2,3,5,6-Tetrafluoro-4-(trifluoromethyl)phenyl 3,5-bis(trifluoromethyl)benzoate]",,,,,0.8,1.0,1.0,"isoTOP-ABPP ratio, lysine P17858_K315 [1]: 1.0"
"O=C(CC12CC3CC(CC(C3)C1)C2)Oc1ccc([N+](=O)[O-])cc1[N+](=O)[O-] [fragment 38, 2,4-Dinitrophenyl 2-(adamantan-1-yl)acetate]",1.4,1.3,20.0,20.0,,,,"isoTOP-ABPP ratio (R) at liganded lysine P17858_K315 ([1]; 50 uM, in vitro): 0.4"
"O=C(ON1C(=O)CCC1=O)c1cc(C(F)(F)F)cc(C(F)(F)F)c1 [fragment 46, 3,5-Bis(trifluoromethyl)benzoic acid NHS ester]",,,,,1.0,1.4,0.8,"isoTOP-ABPP ratio, lysine P17858_K315 [1]: 0.6"
"NC(=O)c1cc(C(F)(F)F)cc(C(F)(F)F)c1 [fragment 51, reference compound]",,,,,1.1,0.9,0.9,"isoTOP-ABPP ratio, lysine Q9HC38_K305 ([2]; 50 uM_231_sol_in vitro): 0.9"
